Legend:
AIA in rats = test: Pharmacodynamic study for AIA in rats (complete Freund's adjuvant, joint swelling score); format: in vivo, Lewis rats; conditions: for Scoring value Day 1: Day 1, Mean ± SD; for Scoring value Day 1 / Scoring value Day 3 / Scoring value Day 7: AIA Lewis rats; for Scoring value Day 3: Day 3, Mean ± SD; for Scoring value Day 7: Day 7, Mean ± SD; for symptoms of arthritis induced by complete Freund's adjuvant (in words): AIA model in rats
Description: Test Example 4: Pharmacodynamic Studies of the Compounds of Example 1, Example 1-b and Example 3 for AIA in Rats
Experimental material: complete Freund's adjuvant (Chondrex, 7027)
Experimental process: The in vivo efficacy of the compounds of the invention was investigated. 8-Week-old female Lewis rats were selected for modeling by complete Freund's adjuvant (J. of Immunology, 2010, 184: 5298-5307) and grouped after 12 days. 7 groups were divided: the model group, the Example 1 low dose group (3 mg/kg), the Example 1 high dose group (30 mg/kg), the Example 1-b low dose group (1 mg/kg), the Example 1-b high dose group (3 mg/kg), the Example 3 low dose group (3 mg/kg) and the Example 3 high dose group (30 mg/kg). The model group was given 0.5% CMC-Na and the rest groups were given the corresponding dose of the compound. The animals were scored according to the degree of joint swelling after 7 days of oral administration (Proc Soc Exp Bio Med 1962, 111: 544-547).

[1] = Pharmacokinetic study in rats after oral administration; format: in vivo, SD rats; conditions: for pharmacokinetic parameters (in words): oral administration in SD rats; for AUC(0-t) / Cmax: rat, male SD rats, oral 5 mg/kg, plasma
Protocol: Experimental Example 5: Pharmacokinetic Studies of the Compounds of Example 1, Example 1-a, Example 1-b and Example 3 in Rats In order to investigate the blood concentration and pharmacokinetic parameters of the compounds of the present invention after oral administration, the corresponding LC/MS/MS assay and plasma treatment methods were developed for the compounds of the Experimental Examples. […] Male SD rats were orally administered at a dose of 5 mg/kg. Blood was orbitally collected and anticoagulated with sodium heparin. The plasma was deproteinated with acetonitrile. The samples were analyzed by LC/MS/MS method. Wherein, AUC<1000 μg/L*h is shown as C, AUC between 1000-2000 μg/L*h is shown as B, AUC>2000 μg/L*h is shown as A; Cmax<600 μg/L is shown as C, Cmax between 600-900 μg/L is shown as B, and Cmax>900 μg/L is shown as A.

TYK2 kinase = target: T1, TYK2 kinase (Homo sapiens, UniProt P29597); test: In vitro inhibitory activity on Tyk2 kinase (ADP-Glo Kinase Assay); format: biochemical; conditions: TYK2 kinase 4 nM, 1 mM ATP
T1 sequence (P29597 897-1187 limits assumed): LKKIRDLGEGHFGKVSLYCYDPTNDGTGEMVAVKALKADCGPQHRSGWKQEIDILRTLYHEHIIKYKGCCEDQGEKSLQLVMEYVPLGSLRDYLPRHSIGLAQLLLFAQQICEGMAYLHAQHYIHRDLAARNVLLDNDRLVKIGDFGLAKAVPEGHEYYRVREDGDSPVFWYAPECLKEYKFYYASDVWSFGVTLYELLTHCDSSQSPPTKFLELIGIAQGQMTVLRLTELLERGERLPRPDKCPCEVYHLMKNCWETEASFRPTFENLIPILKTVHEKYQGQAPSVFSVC
Protocol: Test Example 2: Determination of In Vitro Inhibitory Activity of the Compounds of the Present Invention on Tyk2 Kinase Experimental materials: TYK2 (Invitrogen, PV4790), ATP (Promega, V915B), ADP-Glo Kinase Assay (Promega, V9101), IRS1 (Signalchem, 140-58-1000). Sample preparation: The compounds of the present invention and the control product were dissolved in DMSO solvent respectively to formulate into 10 mM initial liquid. The maximum concentration of the compound was 10 μM, 3-fold dilution, 10 concentration gradients, and duplicate wells for each concentration gradient. Experimental process: 0.1 μL of the compound to be tested was transferred into a 384 reaction plate (PE, 6007290) via Echo and centrifuged at 1000 rpm/min for 1 min. 5 μL TYK2 kinase (final concentration of 4 nM) was transferred into the 384 reaction plate, which was then centrifuged at 1000 rpm/min for 1 min, and incubated at 25° C. for 15 min. 5 μL substrate mixture (1 mM ATP, IRS1 0.05 mg/ml, kinase buffer solution) was transferred into the 384 reaction plate, which was then centrifuged at 1000 rpm/min for 1 min, and incubated at 25° C. for 60 min. 10 μL ADP-Glo was transferred into the 384 reaction plate, which was then centrifuged at 1000 rpm/min for 1 min, and incubated at 25° C. for 40 min. 20 μL test solution was transferred into the 384 reaction plate, which was centrifuged at 1000 rpm/min for 1 min and incubated at 25° C. for 40 min. RLU (Relative luminescence unit) signal was read by using an Envision multifunctional plate reader. The signal intensity was used to characterize the degree of the kinase activity. […] IC50 value of 0-100 nM is shown as A, IC50 value of 100-300 nM is shown as B, IC50 value of 300-1000 nM is shown as C, and IC50 value which is greater than 1000 nM is shown as D. NT means not tested.

Cn1cc(Nc2nccc(C3=CC4CCC(C3)N4C(=O)[C@@H]3CC3(F)F)n2)cn1 (stereo partly drawn) [Compound 1, ((S)-2,2-difluorocyclopropyl)(3-(2-((1-methyl-1H-pyrazol-4-yl)amino)pyrimidin-4-yl)-8-azabicyclo[3.2.1]oct-2-en-8-yl)methanone]
Scoring value Day 1 (AIA in rats; 3 mg/kg oral): 3.78 ± 2.54 | Scoring value Day 3 (AIA in rats; 3 mg/kg oral): 2.67 ± 1.22 | Scoring value Day 7 (AIA in rats; 3 mg/kg oral): 0.22 ± 0.44 | Scoring value Day 1 (AIA in rats; 30 mg/kg oral): 4.11 ± 2.52 | Scoring value Day 3 (AIA in rats; 30 mg/kg oral): 0.44 ± 0.73 | Scoring value Day 7 (AIA in rats; 30 mg/kg oral): 0.00 ± 0.00 | symptoms of arthritis induced by complete Freund's adjuvant (in words) (AIA in rats): significantly inhibit | pharmacokinetic parameters (in words) [1]: good pharmacokinetic parameters | AUC(0-t) [1]: > 2000 ng·h/mL | Cmax [1]: > 900 ng/mL | IC50 (TYK2 kinase): < 100 nM

Cn1cc(Nc2nccc(C3=C[C@H]4CC[C@@H](C3)N4C(=O)[C@@H]3CC3(F)F)n2)cn1 [Compound 1-b, ((S)-2,2-difluorocyclopropyl)((1R,5S)-3-(2-((1-methyl-1H-pyrazol-4-yl)amino)pyrimidin-4-yl)-8-azabicyclo[3.2.1]oct-2-en-8-yl)methanone]
Scoring value Day 1 (AIA in rats; 1 mg/kg oral): 3.30 ± 2.67 | Scoring value Day 3 (AIA in rats; 1 mg/kg oral): 3.10 ± 3.51 | Scoring value Day 7 (AIA in rats; 1 mg/kg oral): 3.30 ± 3.71 | Scoring value Day 1 (AIA in rats; 3 mg/kg oral): 3.30 ± 2.67 | Scoring value Day 3 (AIA in rats; 3 mg/kg oral): 0.30 ± 0.95 | Scoring value Day 7 (AIA in rats; 3 mg/kg oral): 1.50 ± 3.75 | symptoms of arthritis induced by complete Freund's adjuvant (in words) (AIA in rats): significantly inhibit | pharmacokinetic parameters (in words) [1]: good pharmacokinetic parameters | AUC(0-t) [1]: > 2000 ng·h/mL | Cmax [1]: > 900 ng/mL | IC50 (TYK2 kinase): < 100 nM

Cn1cc(Nc2nccc(C3=CC4CCC(C3)N4C(=O)NCC(F)(F)F)n2)cn1 (stereo not drawn) [Compound 3, 3-(2-((1-methyl-1H-pyrazol-4-yl)amino)pyrimidin-4-yl)-N-(2,2,2-trifluoroethyl)-8-azabicyclo[3.2.1]oct-2-ene-8-carboxamide]
Scoring value Day 1 (AIA in rats; 3 mg/kg oral): 3.78 ± 1.92 | Scoring value Day 3 (AIA in rats; 3 mg/kg oral): 3.78 ± 1.72 | Scoring value Day 7 (AIA in rats; 3 mg/kg oral): 1.33 ± 0.87 | Scoring value Day 1 (AIA in rats; 30 mg/kg oral): 3.44 ± 1.94 | Scoring value Day 3 (AIA in rats; 30 mg/kg oral): 0.56 ± 0.53 | Scoring value Day 7 (AIA in rats; 30 mg/kg oral): 0.00 ± 0.00 | symptoms of arthritis induced by complete Freund's adjuvant (in words) (AIA in rats): significantly inhibit | pharmacokinetic parameters (in words) [1]: good pharmacokinetic parameters | AUC(0-t) [1]: 1000 to 2000 ng·h/mL | Cmax [1]: 600 to 900 ng/mL | IC50 (TYK2 kinase): < 100 nM
